The series is described as follows: Degree of solubility of polymerization initiators (3 mass % aqueous solution). On the set-up: key: A: The polymerization initiator was fully dissolved at room temperature.; B: The polymerization initiator was slightly precipitated at room temperature, and was fully dissolved when being heated at 60° C.; The polymerization initiator was not fully dissolved even when being heated at 60° C. Particulars: 3 mass % aqueous solution of the polymerization initiator; room temperature / heated at 60° C. It counts as physicochemical. How it is done: 3 mass % aqueous solutions were respectively prepared using Polymerization Initiators I-1 to I-5, I-8, and R-1 to R-4, and the degrees of solubility of the polymerization initiators were evaluated according to the following evaluation standards.
A: The polymerization initiator was fully dissolved at room temperature.
B: The polymerization initiator was slightly precipitated at room temperature, and was fully dissolved when being heated at 60° C.
C: The polymerization initiator was not fully dissolved even when being heated at 60° C.
As for `C[N+](C)(CCCS(=O)(=O)[O-])CCOc1ccc2c(=O)c3ccccc3sc2c1` [Compound I-1], the Degree of solubility entry is “A”.

Consider `CC(C)(O)C(=O)c1ccc(OCCO)cc1` [Compound R-1], for which the Degree of solubility result is reported as “C”.

With `Cc1c(OCC(O)C[N+](C)(C)C)cc2c(=O)c3ccccc3sc2c1C` (centres unmarked) [Compound R-2], the Degree of solubility entry is “A”.

On to `COC(OC)(C(=O)c1ccc(OCC(=O)[O-])cc1)c1ccc(OCC(=O)[O-])cc1.[Na+].[Na+]` [Compound R-3], for which the Degree of solubility entry is reported as “C”.

Consider `CCC(Cc1ccc(S(=O)(=O)O)cc1)(C(=O)c1ccc(N2CCOCC2)cc1)N(C)C` (centres unmarked) [Compound R-4], for which the Degree of solubility result is “A”.

For the origin of these results see patent US9458337B2, “Curable resin composition, water-soluble ink composition, ink set, and image-forming method” (FUJIFILM CORPORATION, priority 2012, dated 2016).
